Measured values from ChEMBL document CHEMBL4680150, “Design, synthesis and biological evaluation of vincamine derivatives as potential pancreatic β-cells protective agents for the treatment of type 2 diabetes mellitus” (Eur J Med Chem, 2020).
The source made the active and inactive calls.

Assays:
INS1(832/13) [1] = test: Cytoprotective activity in rat INS-1 832/13 cells assessed as inhibition of STZ-induced apoptosis at 20 uM incubated for 24 hrs by MTT assay relative to control; assay type: functional
INS1(832/13) [2] = test: Cytoprotective activity in rat INS-1 832/13 cells assessed as inhibition of STZ-induced apoptosis incubated for 24 hrs by MTT assay; assay type: functional, cell-based; conditions: INS-1 832/13, 24 h
INS1(832/13) [3] = test: Cytoprotective activity against STZ-induced rat INS-1 832/13 cells assessed as increase in IRS2 protein expression at 5 to 20 uM after 24 hrs Western blot analysis; assay type: functional, cell-based; conditions: dose 5-20 µM
INS1(832/13) [4] = test: Cytoprotective activity against STZ-induced toxicity in rat INS-1 832/13 cells at 10 uM incubated for 24 hrs by MTT assay; assay type: functional, cell-based
INS-1 832/13 [5] = test: Activation of PI3K/Akt signalling pathway in STZ-induced rat INS-1 832/13 cells assessed as increase in phosphorylation of GSK3beta at Ser9 residue at 5 to 20 uM after 24 hrs by Western blot analysis; conditions: filed as activator, dose 5-20 µM
INS1(832/13) [6] = test: Cytoprotective activity against STZ-induced toxicity in rat INS-1 832/13 cells assessed as mass of apoptotic cells at 20 uM by Annexin V-FITC staining based flow cytometric analysis (reference value: 40.8%); assay type: functional
INS1(832/13) [7] = test: Cytoprotective activity against STZ-induced rat INS-1 832/13 cells assessed as increase in IRS2 mRNA expression at 5 to 20 uM after 24 hrs RT-PCR analysis; assay type: functional, cell-based; conditions: dose 5-20 µM
INS1(832/13) [8] = test: Cytoprotective activity against STZ-induced toxicity in rat INS-1 832/13 cells assessed as mass of apoptotic cells at 5 uM by Annexin V-FITC staining based flow cytometric analysis (reference value: 40.8%); assay type: functional
INS1(832/13) [9] = test: Cytoprotective activity in rat INS-1 832/13 cells assessed as inhibition of STZ-induced apoptosis at 20 uM incubated for 24 hrs in presence of wortmannin by MTT assay; assay type: functional, cell-based
INS-1 832/13 [10] = test: Activation of PI3K/Akt signalling pathway in STZ-induced rat INS-1 832/13 cells assessed as decrease in Bim mRNA expression at 5 to 20 uM after 24 hrs by RT-PCR analysis; conditions: filed as activator, dose 5-20 µM
INS-1 832/13 [11] = test: Activation of AKT in STZ-induced rat INS-1 832/13 cells assessed as increase in Akt phosphorylation at 20 uM after 24 hrs in presence of wortmannin by Western blot analysis
INS-1 832/13 [12] = test: Activation of PI3K/Akt signalling pathway in STZ-induced rat INS-1 832/13 cells assessed as increase in phosphorylation of FOX01 at Ser256 residue at 5 to 20 uM after 24 hrs by Western blot analysis; conditions: filed as activator, dose 5-20 µM
INS-1 832/13 [13] = test: Activation of PI3K/Akt signalling pathway in STZ-induced rat INS-1 832/13 cells assessed as decrease in caspase 3 protein expression at 5 to 20 uM after 24 hrs by Western blot analysis; conditions: filed as activator, dose 5-20 µM
INS-1 832/13 [14] = test: Activation of PI3K/Akt signalling pathway in STZ-induced rat INS-1 832/13 cells assessed as decrease in cleaved-caspase 3 protein expression at 5 to 20 uM after 24 hrs by Western blot analysis; conditions: filed as activator, dose 5-20 µM
INS-1 832/13 [15] = test: Activation of AKT in STZ-induced rat INS-1 832/13 cells assessed as increase in Akt phosphorylation at 5 to 20 uM after 24 hrs by Western blot analysis; conditions: filed as activator, dose 5-20 µM
INS-1 832/13 [16] = test: Activation of AKT in STZ-induced rat INS-1 832/13 cells assessed as increase in Akt phosphorylation at 5 to 20 uM after 24 hrs by AlphaLISA assay; conditions: filed as activator, dose 5-20 µM
INS1(832/13) [17] = test: Cytoprotective activity against STZ-induced toxicity in rat INS-1 832/13 cells assessed as mass of apoptotic cells at 10 uM by Annexin V-FITC staining based flow cytometric analysis (reference value: 40.8%); assay type: functional
INS1(832/13) [18] = test: Potency index, ratio of vincamine EC50 to test compound EC50 for cytoprotective activity in rat INS-1 832/13 cells assessed as inhibition of STZ-induced apoptosis; assay type: functional
INS-1 832/13 [19] = test: Activation of PI3K/Akt signalling pathway in STZ-induced rat INS-1 832/13 cells assessed as decrease in p21 mRNA expression at 5 to 20 uM after 24 hrs by RT-PCR analysis; conditions: filed as activator, dose 5-20 µM
INS-1 832/13 [20] = test: Activation of PI3K/Akt signalling pathway in STZ-induced rat INS-1 832/13 cells assessed as decrease in caspase 9 protein expression at 5 to 20 uM after 24 hrs by Western blot analysis; conditions: filed as activator, dose 5-20 µM

Row | Structure (SMILES) | Activity (INS1(832/13) [1]) | EC50 (INS1(832/13) [2]) | also measured
1 | CC[C@@]12C=C(C(=O)Nc3ccccc3)n3c4c(c5ccccc53)CCN(CCC1)[C@H]42 | inactive | – | –
2 | CC[C@@]12C=C(COC(N)=O)n3c4c(c5ccccc53)CCN(CCC1)[C@H]42 | Active | 8.75 µM | –
3 | CC[C@@]12C=C(C(=O)N3CCOCC3)n3c4c(c5ccccc53)CCN(CCC1)[C@H]42 | Active | 10.9 µM | –
4 | CC[C@@]12C=C(CNC(N)=O)n3c4c(c5ccccc53)CCN(CCC1)[C@H]42 | inactive | – | –
5 | CC[C@@]12C=C(COC(=O)NC(C)C)n3c4c(c5ccccc53)CCN(CCC1)[C@H]42 | Active | 10.8 µM | –
6 | CC[C@@]12C=C(COC(=O)C(C)C)n3c4c(c5ccccc53)CCN(CCC1)[C@H]42 | Active | 1.74 µM | –
7 | CC[C@@]12C=C(COC(=O)c3ccccc3)n3c4c(c5ccccc53)CCN(CCC1)[C@H]42 | inactive | – | –
8 | CC[C@@]12C=C(COC(=O)Nc3ccccc3)n3c4c(c5ccccc53)CCN(CCC1)[C@H]42 | inactive | – | –
9 | CC[C@@]12C=C(C(=O)NC3CCCC3)n3c4c(c5ccccc53)CCN(CCC1)[C@H]42 | Active | 12.8 µM | –
10 | CCCCNC(=O)C1=C[C@]2(CC)CCCN3CCc4c(n1c1ccccc41)[C@@H]32 | Active | 9.4 µM | –
11 | CCCOC(=O)C1=C[C@]2(CC)CCCN3CCc4c(n1c1ccccc41)[C@@H]32 | Active | 5.44 µM | –
12 | CC[C@@]12C=C(C(=O)OC(C)C)n3c4c(c5ccccc53)CCN(CCC1)[C@H]42 | Active | 4.55 µM | –
13 | CC[C@@]12C=C(COC(=O)NC)n3c4c(c5ccccc53)CCN(CCC1)[C@H]42 | Active | 1.65 µM | –
14 | CCCNCC1=C[C@]2(CC)CCCN3CCc4c(n1c1ccccc41)[C@@H]32 | inactive | – | –
15 | CC[C@@]12C=C(C(=O)NC)n3c4c(c5ccccc53)CCN(CCC1)[C@H]42 | Active | 0.66 µM | –
16 | CC[C@@]12C=C(CNCc3ccccc3)n3c4c(c5ccccc53)CCN(CCC1)[C@H]42 | inactive | – | –
17 | CCNC(=O)OCC1=C[C@]2(CC)CCCN3CCc4c(n1c1ccccc41)[C@@H]32 | Active | 1.69 µM | –
18 | CCCCN(CCCC)C(=O)C1=C[C@]2(CC)CCCN3CCc4c(n1c1ccccc41)[C@@H]32 | inactive | – | –
19 | CC[C@@]12C=C(C(=O)N3CCCC3)n3c4c(c5ccccc53)CCN(CCC1)[C@H]42 | Active | 13.2 µM | –
20 | CCCCCNC(=O)C1=C[C@]2(CC)CCCN3CCc4c(n1c1ccccc41)[C@@H]32 | inactive | – | –
21 | CC[C@@]12C=C(CNC(=O)C(C)C)n3c4c(c5ccccc53)CCN(CCC1)[C@H]42 | Active | 7.2 µM | –
22 | CCC(=O)OCC1=C[C@]2(CC)CCCN3CCc4c(n1c1ccccc41)[C@@H]32 | Active | 6.84 µM | –
23 | CC[C@@]12C=C(CNC(=O)C3CC3)n3c4c(c5ccccc53)CCN(CCC1)[C@H]42 | Active | 4.4 µM | –
24 | CCNC(=O)NCC1=C[C@]2(CC)CCCN3CCc4c(n1c1ccccc41)[C@@H]32 | inactive | – | –
25 | CC[C@@]12C=C(CN)n3c4c(c5ccccc53)CCN(CCC1)[C@H]42 | Active | 7.62 µM | –

Row | Structure (SMILES) | Activity (INS1(832/13) [1]) | EC50 (INS1(832/13) [2]) | also measured
26 | CCCNC(=O)OCC1=C[C@]2(CC)CCCN3CCc4c(n1c1ccccc41)[C@@H]32 | Active | 5.85 µM | –
27 | CCCN(CCC)C(=O)C1=C[C@]2(CC)CCCN3CCc4c(n1c1ccccc41)[C@@H]32 | Active | 7.1 µM | –
28 | CC[C@@]12C=C(C(=O)N3CCCCC3)n3c4c(c5ccccc53)CCN(CCC1)[C@H]42 | Active | 4.89 µM | –
29 | CC[C@@]12C=C(C(=O)OC)n3c4c(c5ccccc53)CCN(CCC1)[C@H]42 [APOVINCAMINE] | Active | 5.03 µM | –
30 | CC[C@@]12C=C(COC(=O)NCCO)n3c4c(c5ccccc53)CCN(CCC1)[C@H]42 | Active | 5.32 µM | –
31 | CCC(=O)NCC1=C[C@]2(CC)CCCN3CCc4c(n1c1ccccc41)[C@@H]32 | Active | 3.02 µM | –
32 | CC[C@@]12C=C(C(=O)N(C)C)n3c4c(c5ccccc53)CCN(CCC1)[C@H]42 | inactive | – | –
33 | CCCC(=O)NCC1=C[C@]2(CC)CCCN3CCc4c(n1c1ccccc41)[C@@H]32 | Active | 8.7 µM | –
34 | CCCNC(=O)C1=C[C@]2(CC)CCCN3CCc4c(n1c1ccccc41)[C@@H]32 | Active | 0.37 µM | –
35 | CC[C@@]12C=C(C(=O)NCCCO)n3c4c(c5ccccc53)CCN(CCC1)[C@H]42 | Active | 10.2 µM | –
36 | CC[C@@]12C=C(COC(=O)NCCCO)n3c4c(c5ccccc53)CCN(CCC1)[C@H]42 | Active | 9.05 µM | –
37 | CCNC(=O)C1=C[C@]2(CC)CCCN3CCc4c(n1c1ccccc41)[C@@H]32 | Active | 0.2 µM | –
38 | CC[C@@]12C=C(C(N)=O)n3c4c(c5ccccc53)CCN(CCC1)[C@H]42 | inactive | 10.2 µM | –
39 | CC[C@@]12C=C(CO)n3c4c(c5ccccc53)CCN(CCC1)[C@H]42 | – | 0.22 µM | Activity (INS1(832/13) [3]): Active; Activity (INS1(832/13) [4]): Active; Activity (INS-1 832/13 [5]): Active; Activity (INS1(832/13) [6]): 19.1%; Activity (INS1(832/13) [7]): Active; Activity (INS1(832/13) [8]): 32%; Activity (INS1(832/13) [9]): inactive; Activity (INS-1 832/13 [10]): Active; Activity (INS-1 832/13 [11]): inactive; Activity (INS-1 832/13 [12]): Active; Activity (INS-1 832/13 [13]): Active; Activity (INS-1 832/13 [14]): Active; Activity (INS-1 832/13 [15]): Active; Activity (INS-1 832/13 [16]): Active; Activity (INS1(832/13) [17]): 26.1%; Ratio EC50 (INS1(832/13) [18]): 2; Activity (INS-1 832/13 [19]): Active; Activity (INS-1 832/13 [20]): Active
40 | CC[C@@]12C=C(C(=O)NC(C)C)n3c4c(c5ccccc53)CCN(CCC1)[C@H]42 | Active | 10.8 µM | –
41 | CC[C@@]12C=C(CNC(=O)NC)n3c4c(c5ccccc53)CCN(CCC1)[C@H]42 | inactive | – | –
42 | CCCC(=O)OCC1=C[C@]2(CC)CCCN3CCc4c(n1c1ccccc41)[C@@H]32 | Active | 3.77 µM | –
43 | CCCCNC(=O)OCC1=C[C@]2(CC)CCCN3CCc4c(n1c1ccccc41)[C@@H]32 | inactive | – | –
44 | CC[C@@]12C=C(CNC)n3c4c(c5ccccc53)CCN(CCC1)[C@H]42 | Active | 1.6 µM | –
45 | CC[C@@]12C=C(COC(C)=O)n3c4c(c5ccccc53)CCN(CCC1)[C@H]42 | Active | 0.36 µM | –
46 | CC[C@@]12C=C(CNC(=O)c3ccccc3)n3c4c(c5ccccc53)CCN(CCC1)[C@H]42 | inactive | – | –
47 | CC[C@@]12C=C(CNC(=O)Nc3ccccc3)n3c4c(c5ccccc53)CCN(CCC1)[C@H]42 | inactive | – | –
48 | CC[C@@]12C=C(C(=O)Nc3ccc(OC)cc3)n3c4c(c5ccccc53)CCN(CCC1)[C@H]42 | inactive | – | –
49 | CC[C@@]12C=C(C(=O)NCCO)n3c4c(c5ccccc53)CCN(CCC1)[C@H]42 | Active | 0.96 µM | –
50 | CCN(CC)C(=O)C1=C[C@]2(CC)CCCN3CCc4c(n1c1ccccc41)[C@@H]32 | Active | 11.5 µM | –
